Assay [1] concerns the target hGYS1 enzyme (recombinant hGYS1/GN1 protein) (Homo sapiens (Human), UniProt P13807). Nature of the assay: GYS1 coupled enzyme assay (PK/LDH). Type of assay: biochemical. Particulars: hGYS1/GN1 50 nM, UDP-Glucose 0.8 mM, G6P 1 mM; geometric mean of at least 2 runs.
The subject of assay [2] is hGYS1 enzyme / glycogen synthesis in HeLa cells. Nature of the assay: GYS1 cell based assay (glycogen synthesis, Glucose-glo). On the set-up: species or system human. Particulars: Homo sapiens, HeLa, 24 h, 24 h incubation, 20 mM glucose, geometric mean of at least 2 runs. The gist of the method: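 HeLa cells starved 24 h in medium containing only 1× Glutamax were plated onto compound in medium with 20 mM glucose (1% DMSO final) for 24 h, 37 °C, 5% CO2. Acid lysates were Tris-quenched, glucoamylase-digested (pH 5.3, 1 h, 37 °C) and read by Glucose-glo luminescence. IC50 came from Hill fits, as geometric mean of ≥2 runs.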

Assay [3] has as its target hGYS2 enzyme (recombinant hGYS2/GN1 protein) (Homo sapiens (Human), UniProt P54840). Kind of assay: GYS2 coupled enzyme assay (PK/LDH). It is filed as biochemical. Conditions: geometric mean of at least 2 assay runs on separate days, read-out: Avg_IC50. Summed up:
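hGYS2/GN1 200 nM; UDP-Glc 2 mM; glycogen 0.2%; G6P 2 mM; PEP 2 mM, NADH 0.6 mM, PK/LDH 20 U/mL. 50 mM Tris pH 7.5, MgCl2, KCl, BSA, TCEP, 2.5% DMSO. Kinetic A340, 10 min. IC50 = geomean of ≥2 runs.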

Chain of hGYS2 enzyme (recombinant hGYS2/GN1 protein) (P54840 whole entry): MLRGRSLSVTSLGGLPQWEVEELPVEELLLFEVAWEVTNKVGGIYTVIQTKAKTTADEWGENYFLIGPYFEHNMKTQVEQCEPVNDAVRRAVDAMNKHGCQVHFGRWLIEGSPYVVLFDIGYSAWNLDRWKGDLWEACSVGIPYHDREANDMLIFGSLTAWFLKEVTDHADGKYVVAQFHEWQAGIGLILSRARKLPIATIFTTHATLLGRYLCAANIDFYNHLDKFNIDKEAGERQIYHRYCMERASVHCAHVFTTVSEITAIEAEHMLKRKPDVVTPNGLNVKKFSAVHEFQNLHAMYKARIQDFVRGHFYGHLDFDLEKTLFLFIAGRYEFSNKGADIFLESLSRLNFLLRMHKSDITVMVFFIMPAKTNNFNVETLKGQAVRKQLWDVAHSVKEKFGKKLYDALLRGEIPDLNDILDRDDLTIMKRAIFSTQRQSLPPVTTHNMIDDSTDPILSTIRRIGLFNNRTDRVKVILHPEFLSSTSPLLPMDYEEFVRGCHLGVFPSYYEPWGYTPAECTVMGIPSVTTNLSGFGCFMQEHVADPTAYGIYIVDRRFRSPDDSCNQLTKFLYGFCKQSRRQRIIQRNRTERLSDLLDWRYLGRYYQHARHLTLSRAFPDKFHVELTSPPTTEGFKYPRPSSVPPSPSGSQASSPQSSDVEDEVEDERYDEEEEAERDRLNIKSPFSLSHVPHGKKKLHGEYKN
Chain of hGYS2 enzyme (recombinant hGYS2/GN1 protein) (P46976 whole entry partner): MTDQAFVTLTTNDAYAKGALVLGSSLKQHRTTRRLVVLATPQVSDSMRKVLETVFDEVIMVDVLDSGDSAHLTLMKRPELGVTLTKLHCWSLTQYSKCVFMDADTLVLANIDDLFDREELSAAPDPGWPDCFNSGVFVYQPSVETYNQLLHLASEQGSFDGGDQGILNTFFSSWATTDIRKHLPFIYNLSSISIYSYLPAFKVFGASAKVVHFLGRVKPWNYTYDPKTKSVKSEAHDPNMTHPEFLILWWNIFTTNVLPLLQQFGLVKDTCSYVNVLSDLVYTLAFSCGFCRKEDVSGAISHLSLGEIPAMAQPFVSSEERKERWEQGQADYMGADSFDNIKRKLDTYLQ
Chain of hGYS1 enzyme (recombinant hGYS1/GN1 protein) (P13807 whole entry): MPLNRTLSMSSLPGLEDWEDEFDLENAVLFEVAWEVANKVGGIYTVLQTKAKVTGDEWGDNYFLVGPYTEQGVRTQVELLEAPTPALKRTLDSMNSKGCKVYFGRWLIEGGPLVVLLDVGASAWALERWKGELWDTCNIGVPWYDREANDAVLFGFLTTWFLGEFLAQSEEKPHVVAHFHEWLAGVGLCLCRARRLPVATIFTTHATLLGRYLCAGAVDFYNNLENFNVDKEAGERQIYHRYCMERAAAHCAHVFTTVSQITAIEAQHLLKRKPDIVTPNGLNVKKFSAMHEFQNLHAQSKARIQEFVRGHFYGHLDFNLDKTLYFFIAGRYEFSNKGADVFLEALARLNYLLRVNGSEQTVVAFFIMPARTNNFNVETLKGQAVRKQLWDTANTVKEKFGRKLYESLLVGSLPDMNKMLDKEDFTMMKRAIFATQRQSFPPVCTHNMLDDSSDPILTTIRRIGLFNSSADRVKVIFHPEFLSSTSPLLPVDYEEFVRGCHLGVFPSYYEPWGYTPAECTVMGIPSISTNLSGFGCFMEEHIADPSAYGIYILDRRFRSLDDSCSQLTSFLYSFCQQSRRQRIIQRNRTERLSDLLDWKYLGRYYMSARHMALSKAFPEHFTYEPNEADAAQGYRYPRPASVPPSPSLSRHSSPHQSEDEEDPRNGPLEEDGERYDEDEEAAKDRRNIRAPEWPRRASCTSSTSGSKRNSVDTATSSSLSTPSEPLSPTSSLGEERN
Chain of hGYS1 enzyme (recombinant hGYS1/GN1 protein) (P46976 whole entry partner): as the sequence (P46976 whole entry partner) above

As for `CC(C)c1ccc([C@@H](NC(=O)[C@@H]2C[C@@H](F)CN2C(=O)Cc2cnn[nH]2)c2ccccc2)nc1F` [Compound 385, (2S,4R)-1-(2-(1H-1,2,3-triazol-5-yl)acetyl)-4-fluoro-N—((S)-(6-fluoro-5-isopropylpyridin-2-yl)(phenyl)methyl)pyrrolidine-2-carboxamide], the IC50 in assay [1] is 17 nM; in assay [2] it was 390 nM; in assay [3], over 100000 nM.

For the molecule `Cc1cn(CC(=O)N2C[C@H](F)C[C@H]2C(=O)N[C@@H](c2ccccc2)c2ccc(C(C)C)c(F)c2)c(=O)[nH]c1=O` [Compound 352, (2S,4R)-4-fluoro-N-[(S)-[3-fluoro-4-(propan-2-yl)phenyl](phenyl)methyl]-1-[2-(5-methyl-2,4-dioxo-1,2,3,4-tetrahydropyrimidin-1-yl)acetyl]pyrrolidine-2-carboxamide], the IC50 in assay [1] is 5 nM; in assay [2], 110 nM; in assay [3], over 100000 nM.

In the case of `O=C(N[C@@H](c1ccccc1)c1ccc(C2CC(F)(F)C2)cn1)[C@@H]1C[C@@H](F)CN1C(=O)CNC(=O)N1CCC1` [Compound 533, (2S,4R)-1-{2-[(azetidine-1-carbonyl)amino]acetyl}-N-[(S)-[5-(3,3-difluorocyclobutyl)pyridin-2-yl](phenyl)methyl]-4-fluoropyrrolidine-2-carboxamide], the IC50 was 43 nM in assay [1], 1210 nM in assay [2] and over 100000 nM in assay [3].

Turning to `Cc1nccc(NCC(=O)N2C[C@H](F)C[C@H]2C(=O)N[C@@H](c2ccccc2)c2ccc(C(C)C)c(F)n2)n1` [Compound 404, (2S,4R)-4-fluoro-N-[(S)-[6-fluoro-5-(propan-2-yl)pyridin-2-yl](phenyl)methyl]-1-{2-[(2-methylpyrimidin-4-yl)amino]acetyl} pyrrolidine-2-carboxamide], the IC50 was 6 nM in assay [1], 70 nM in assay [2] and over 100000 nM in assay [3].

With `CC(C)c1ccc([C@@H](NC(=O)[C@@H]2C[C@@H](F)CN2C(=O)Cn2nnnc2C(F)F)c2ccccc2)nc1F` [Compound 400, (2S,4R)-1-{2-[5-(difluoromethyl)-1H-1,2,3,4-tetrazol-1-yl]acetyl}-4-fluoro-N-[(S)-[6-fluoro-5-(propan-2-yl)pyridin-2-yl](phenyl)methyl] pyrrolidine-2-carboxamide], the IC50 in assay [1] is 12 nM; in assay [2], 170 nM; in assay [3], over 100000 nM.

As for `CC(C)c1ccc([C@@H](NC(=O)[C@@H]2C[C@@H](F)CN2C(=O)Cc2ccn(C)n2)c2ccccc2)cc1` [Compound 49, (2S,4R)-4-fluoro-1-[2-(1-methyl-1H-pyrazol-3-yl)acetyl]-N-[(S)-phenyl[4-(propan-2-yl)phenyl]methyl]pyrrolidine-2-carboxamide], the IC50 is 39 nM in assay [1], 360 nM in assay [2] and over 100000 nM in assay [3].

Turning to `CC(C)c1ccc([C@@H](NC(=O)[C@@H]2C[C@@H](F)CN2C(=O)Cn2cc(N(C)C)nn2)c2ccccc2)cc1F` [Compound 377, (2S,4R)-1-{2-[4-(dimethylamino)-1H-1,2,3-triazol-1-yl]acetyl}-4-fluoro-N-[(S)-[3-fluoro-4-(propan-2-yl)phenyl](phenyl)methyl] pyrrolidine-2-carboxamide], the IC50 in assay [1] is 12 nM; in assay [2], 140 nM; in assay [3], over 100000 nM.

For `CN(C)c1cnn(CC(=O)N2C[C@H](F)C[C@H]2C(=O)N[C@@H](c2ccccc2)c2ccc(C3CC3)c(F)c2)n1` [Compound 483, (2S,4R)-N-[(S)-(4-cyclopropyl-3-fluorophenyl)(phenyl)methyl]-1-{2-[4-(dimethylamino)-2H-1,2,3-triazol-2-yl]acetyl}-4-fluoropyrrolidine-2-carboxamide], the IC50 in assay [1] is 49 nM; in assay [2], 720 nM; in assay [3], over 100000 nM.

Values taken from US11814367B2, “Inhibitors of glycogen synthase 1 (GYS1) and methods of use thereof” (Maze Therapeutics, Inc., priority 2021, dated 2023).
